Test results: patent US11827628B2, “Compositions and methods for inhibition of the JAK pathway” (Rigel Pharmaceuticals, Inc., priority 2005, dated 2023)

system: up-regulation of ICAM-1 (CD54) by IFNγ in U937 human monocytic cells; assay: U937 IFNγ ICAM1 FACS Assay; type: cell-based; conditions: Homo sapiens, U-937, U937 cells stimulated with IFNγ, ICAM-1 expression by FACS; read-out: IC50, Example 44
Summary of the method: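 Readout was the geometric-mean APC anti-ICAM-1 signal by FACS on live U937 monocytic cells, with % live cells also recorded. Cells were exposed to compounds (8 points, 3-fold dilutions, duplicates) for 30 min at 37 °C before 18–24 h of IFNγ stimulation. EC50 values were computed from the dose curve.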

IC50	Compound
65100 nM	CNC(=O)COc1ccc(Nc2nc(Nc3cccc(S(N)(=O)=O)c3)ncc2C)cc1F [Compound I-155, N2-(3-Aminosulfonylphenyl)-N4-(3-fluoro-4-methylaminocarbonylmethoxyphenyl)-5-methyl-2,4-pyrimidinediamine]
1640 nM	Cc1ccc(Nc2ncc(C)c(Nc3ccc(OCC(=O)N(C)C)c(Cl)c3)n2)cc1S(N)(=O)=O [Compound I-136, N2-(3-Aminosulfonyl-4-methylphenyl)-N4-(3-chloro-4-dimethylaminocarbonylmethoxyphenyl)-5-methyl-2,4-pyrimidinediamine]
14700 nM	CNC(=O)COc1ccc(Nc2nc(Nc3ccc(S(N)(=O)=O)cc3)ncc2C)cc1Cl [Compound I-149, N2-(4-Aminosulfonylphenyl)-N4-(3-chloro-4-methylaminocarbonylmethoxyphenyl)-5-methyl-2,4-pyrimidinediamine]
66 nM	Cc1cnc(Nc2cccc(S(N)(=O)=O)c2)nc1Nc1ccc(OCC#N)cc1 [Compound I-58, N2-(3-Aminosulfonylphenyl)-N4-(4-cyanomethoxyphenyl)-5-methyl-2,4-pyrimidinediamine]
3930 nM	Cc1ccc(Nc2ncc(C)c(Nc3ccc(OCC(N)=O)cc3)n2)cc1S(N)(=O)=O [Compound I-110, N4-(4-Aminocarbonylmethoxyphenyl)-N2-(3-aminosulfonyl-4-methylphenyl)-5-methyl-2,4-pyrimidinediamine]
55.6 nM	Cc1cc(Nc2nc(Nc3ccc(C)c(S(N)(=O)=O)c3)ncc2F)ccc1CCC#N [III-19, N2-(3-Aminosulfonyl-4-methylphenyl)-N4-[4-(2-cyanoethyl)-3-methylphenyl]-5-fluoro-2,4-pyrimidinediamine]

same assay, conditions: U937 cells stimulated with IFNγ; ICAM-1 expression by FACS; read-out: IC50, Example 44

IC50	Compound
1240 nM	CNS(=O)(=O)c1cc(Nc2ncc(F)c(Nc3ccc(-c4cnco4)cc3)n2)ccc1C [IV-7, 5-Fluoro-N2-[3-(N-methylaminosulfony)-4-methylphenyl]-N4-[4-(1,3-oxazol-5-yl)phenyl]-2,4-pyrimidinediamine]
